Reference: patent publication US7214689B2, “Isoquinoline compounds” (Les Laboratoires Servier, priority 2003, dated 2007)
Counter-ions that a name gives are not always drawn.

Key:
[1] = molecular target: T1, MT2 receptor (Homo sapiens, UniProt P49286); assay: Binding to melatonin receptor MT2 (2-[125I]-iodomelatonin); conditions: 2-[125I]-iodomelatonin radioligand, triplicate
T1 sequence (P49286 1-362): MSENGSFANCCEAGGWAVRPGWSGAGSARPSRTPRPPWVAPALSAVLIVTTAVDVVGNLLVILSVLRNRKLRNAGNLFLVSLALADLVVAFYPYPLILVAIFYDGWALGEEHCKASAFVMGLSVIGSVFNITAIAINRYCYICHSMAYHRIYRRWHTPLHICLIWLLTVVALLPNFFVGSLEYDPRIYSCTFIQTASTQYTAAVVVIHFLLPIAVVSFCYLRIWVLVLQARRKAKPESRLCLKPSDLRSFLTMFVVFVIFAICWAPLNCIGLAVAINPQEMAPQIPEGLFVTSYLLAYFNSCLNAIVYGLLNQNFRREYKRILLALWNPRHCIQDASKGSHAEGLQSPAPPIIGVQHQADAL
Procedure: (§1) Study of Binding to Melatonin Receptors MT1 and MT2
(§2) The MT1 or MT2 receptor binding experiments are carried out using 2-[^125I]-iodomelatonin as reference radioligand. The radioactivity retained is determined using a liquid scintillation counter.
(§3) Competitive binding experiments are then carried out in triplicate using the various test compounds. A range of different concentrations is tested for each compound. The results enable the binding affinities (Ki) of the compounds tested to be determined.

[2] = molecular target: MT1 receptor (Homo sapiens, UniProt P48039); assay: Binding to melatonin receptor MT1 (2-[125I]-iodomelatonin); conditions: 2-[125I]-iodomelatonin radioligand, triplicate
Procedure: as §1, §2, §3

[3] = Forced swimming test; format: in vivo; conditions: 40 minutes before the test
Procedure: The compounds of the invention are tested in a behavioural model, the forced swimming test.
The apparatus is a Plexiglas cylinder filled with water. The animals are tested individually for a session of 6 minutes. At the beginning of each test, the animal is placed in the centre of the cylinder. The period of immobility is recorded. Each animal is judged to be immobile when it ceases to struggle and remains immobile on the surface of the water only making movements that allow it to keep its head out of the water.
In particular, the compound of Example 9, administered at 2.5 mg/kg per os, causes the duration of immobility to be reduced from 102 seconds (control) to 57 seconds. The compound of Example 3, administered at 25 mg/kg per os, causes the duration of immobilisation to be reduced from 129 seconds (control) to 60 seconds.

Sequence of MT1 receptor (P48039 whole entry): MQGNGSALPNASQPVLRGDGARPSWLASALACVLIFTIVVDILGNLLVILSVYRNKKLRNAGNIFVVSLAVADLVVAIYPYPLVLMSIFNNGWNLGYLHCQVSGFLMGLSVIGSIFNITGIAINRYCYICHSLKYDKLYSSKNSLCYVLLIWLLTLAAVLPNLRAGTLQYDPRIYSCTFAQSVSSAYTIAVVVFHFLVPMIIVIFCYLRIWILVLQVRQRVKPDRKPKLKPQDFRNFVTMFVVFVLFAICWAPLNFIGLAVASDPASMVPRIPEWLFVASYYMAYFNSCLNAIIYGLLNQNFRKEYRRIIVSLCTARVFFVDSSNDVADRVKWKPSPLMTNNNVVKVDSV

Row | Ki [1] [nM] | Ki [2] [nM] | SMILES | duration of immobility ([3]; 2.5 mg/kg per os, control 102 seconds) [s] | duration of immobilisation ([3]; 25 mg/kg per os, control 129 seconds) [s]
1 | 1.14 | 4.26 | CCC(=O)NCCc1cncc2ccc(OC)cc12 [Example 10, N-[2-(6methoxy-4-isoquinolinyl)ethyl]propanamide hydrochloride] |  | 
2 | 2.16 | 9.12 | COc1ccc2cncc(CCNC(C)=O)c2c1.Cl [Example 9, N-[2-(6-methoxy-4-isoquinolinyl)ethyl]acetamide hydrochloride] | 57 | 
3 | 2.6 | 3.8 | CNC(=O)CCCc1cncc2ccc(OC)cc12 [Example 3, 4-(6-methoxy-4-isoquinolinyl)-N-methylbutanamide] |  | 60
